Patent publication US8471063B2, “Michael systems as transglutaminase inhibitors” (Zedira GmbH, priority 2006, dated 2013)
pIC50: −log10 of the molar value. Where a SMILES comes first, the peptide text is derived from it. [ ]: non-standard residue; d: D form. The star is where a group is joined. Nle(5E-ene,6-CO2Et) = CCOC(=O)/C=C/CC[C@H](N)C(=O)O; Cbz = O=C(OCc1ccccc1)*

Assays:
[1] = target: T1, recombinant human tissue transglutaminase (His6-rh-TG2) (Homo sapiens, UniProt P21980); assay: Inactivation of human tissue transglutaminase, fluorescence assay, IC50; type: biochemical; details: Table 1; 5 min preincubation, 37° C.
T1 sequence (P21980 1-687): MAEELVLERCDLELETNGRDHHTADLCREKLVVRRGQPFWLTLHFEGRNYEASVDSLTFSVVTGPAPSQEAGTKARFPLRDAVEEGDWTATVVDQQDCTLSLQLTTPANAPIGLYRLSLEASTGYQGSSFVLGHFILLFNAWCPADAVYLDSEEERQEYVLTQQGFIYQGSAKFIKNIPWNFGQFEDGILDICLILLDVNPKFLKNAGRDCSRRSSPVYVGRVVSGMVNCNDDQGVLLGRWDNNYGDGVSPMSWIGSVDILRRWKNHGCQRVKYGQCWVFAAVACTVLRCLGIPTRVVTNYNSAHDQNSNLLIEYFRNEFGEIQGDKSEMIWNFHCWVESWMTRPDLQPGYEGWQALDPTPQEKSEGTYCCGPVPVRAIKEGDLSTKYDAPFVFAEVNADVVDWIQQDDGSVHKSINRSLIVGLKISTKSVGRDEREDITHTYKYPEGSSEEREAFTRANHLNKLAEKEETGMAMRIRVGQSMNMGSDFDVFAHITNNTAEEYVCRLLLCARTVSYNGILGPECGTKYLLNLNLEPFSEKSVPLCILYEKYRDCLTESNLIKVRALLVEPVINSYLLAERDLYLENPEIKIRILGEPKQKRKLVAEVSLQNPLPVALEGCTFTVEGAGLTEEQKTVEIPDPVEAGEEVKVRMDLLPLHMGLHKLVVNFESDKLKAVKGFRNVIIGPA
Method in brief: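 10 μg His6-rh-TG2 added to a pH 7.5 Tris/CaCl2/DTT/PEG8000 assay solution holding inhibitor, 5.56 mM glycine methyl ester and 50 μM Abz-APE(CAD-DNP)QEA-OH (pre-addition levels); 5 min at 37 °C before reading. Fluorescence λexc 313/λem 418 nm over 15 min; activity from slope, IC50 relative to DMSO control.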

FXIII = target: T2, FXIII (Homo sapiens, UniProt P00488); assay: Transglutaminase inhibition, IC50 at FXIII; type: biochemical; details: Table 1
T2 sequence (P00488 1-732): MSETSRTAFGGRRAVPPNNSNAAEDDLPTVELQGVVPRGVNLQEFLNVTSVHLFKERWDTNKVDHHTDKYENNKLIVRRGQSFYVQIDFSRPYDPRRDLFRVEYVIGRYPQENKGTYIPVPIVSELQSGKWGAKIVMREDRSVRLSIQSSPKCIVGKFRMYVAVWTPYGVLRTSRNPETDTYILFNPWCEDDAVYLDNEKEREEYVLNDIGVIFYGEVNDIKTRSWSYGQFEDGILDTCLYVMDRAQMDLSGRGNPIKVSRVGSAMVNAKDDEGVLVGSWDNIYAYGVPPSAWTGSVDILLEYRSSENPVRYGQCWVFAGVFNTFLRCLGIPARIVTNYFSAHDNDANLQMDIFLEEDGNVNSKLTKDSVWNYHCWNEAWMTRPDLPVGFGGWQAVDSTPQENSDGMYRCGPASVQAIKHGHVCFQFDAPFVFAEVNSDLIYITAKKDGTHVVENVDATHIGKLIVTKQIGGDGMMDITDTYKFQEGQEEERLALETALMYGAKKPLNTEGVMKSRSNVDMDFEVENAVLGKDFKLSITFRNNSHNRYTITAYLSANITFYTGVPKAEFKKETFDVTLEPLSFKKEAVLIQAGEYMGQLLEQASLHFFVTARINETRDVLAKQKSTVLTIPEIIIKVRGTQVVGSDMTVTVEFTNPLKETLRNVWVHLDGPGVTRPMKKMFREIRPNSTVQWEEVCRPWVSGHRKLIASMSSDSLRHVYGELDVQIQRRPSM

[2] = tested on: biopsies from the lower duodenum of patients suffering from coeliac disease; assay: Biopsy example 1: anti-TG2 ELISA of PT gliadin stimulated duodenal biopsies; type: cell-based, human; details: 5 μM inhibitor, 30 min preincubation, then PT gliadin 1 mg/ml, 48 hrs; medium control 1.285, PT gliadin alone 2.144
Description: (§1) Biopsies with a diameter of about 2 mm were stored for a maximum of 30 min in ice-cold PBS after removal from the lower duodenum of patients suffering from coeliac disease. The single biopsies were transferred into the cavities of a 24-well cell culture dish and coated with 500 μl of Trowell T8 medium.
(§2) For preincubation, the transglutaminase inhibitor (1) in a final concentration of 5 μM was added to the biopsies and they were incubated for 30 min at a temperature of 37° C. in the incubator under gassing with CO2 (5%). Subsequently, stimulation with gliadin after peptic-tryptic digest (PT gliadin) used in a final concentration of 1 mg/ml was performed. PT gliadin was produced as described by Wieser and Belitz (Wieser H and Belitz HD (1992), Z Lebenm Unters Forsch 194: 229-234). The treatment with the proteases pepsin and trypsin simulates the digestion in the gastrointestinal tract. Thus the resulting gliadin peptides correspond to those which occur in the duodenum after the intake of cereal protein. The biopsies were then incubated for another 48 hrs in the incubator under the above conditions.
Controls were incubated with inhibitor-free medium and without or respectively with PT gliadin.
After 48 hrs, 50 μl samples were taken and analyzed by means of an anti-TG2 ELISA kit.

[3] = tested on: biopsies from the lower duodenum of patients suffering from coeliac disease; assay: Biopsy example 2: interferon-γ ELISA of PT gliadin stimulated duodenal biopsies; type: cell-based, human; details: 5 μM inhibitor preincubation, PT gliadin stimulation
Description: as §1
as §2, with “Thus the resulting gliadin peptides correspond to those which occur in the duodenum after the intake of cereal protein. The biopsies were then incubated for another 48 hrs in the incubator under the above conditions.” left out
Biopsies were cultivated and treated as described in biopsy example 1. After 24 and 48 hrs, 50 μl samples were taken both from the biopsy stimulated with PT gliadin and from the biopsy preincubated with inhibitor (1), which subsequently was also stimulated with PT gliadin and the samples were analyzed by means of an interferon-γ Elisa. A very high interferon-γ value of 653 pg/ml could already be measured in the biopsy stimulated with PT gliadin after 24 hrs, which value increased to 1177 pg/ml after 48 hrs.

dog (Irish setter) = assay: In-vivo experiment in the Irish setter fed a wheat-containing diet
Description: A 5 weeks old dog (Irish setter) was fed with a wheat-containing diet. […] By a jejunal biopsy a partial degradation of the intestinal villi and an increased number of intraepithelial lymphocytes were found.
This dog was fed before each meal with 75 mg/kg body weight transglutaminase inhibitor (1) in a acid-stable formulation. In the following a decrease of the diarrhea and an increase in body weight were observed.

[4] = 75 mg/kg before each meal, after two months
[5] = 75 mg/kg body weight before each meal, acid-stable formulation

For `CCOC(=O)/C=C/CC[C@H](NC(=O)OCc1ccccc1)C(=O)N[C@H](C(=O)N1CCC[C@H]1C(=O)N[C@@H](CC(C)C)C(=O)OC)C(C)C` [Compound 1, N^α-benzyloxycarbonyl-{[(E)-(L)-6-amino-hept-2-ene-dicarboxylic acid]-1-ethanoyl}-L-valinyl-L-prolinyl-L-leucine methyl ester] (Cbz-[Nle(5E-ene,6-CO2Et)]VPL-OMe), the pIC50 [1] was 7.52, the pIC50 (FXIII) was under 4.30 and the “OD450 in the anti-TG2 ELISA (antibody concentration)” value [2] was 1.401. For the same molecule, the interferon-γ value ([3]; after 24 hrs, PT gliadin alone 653 pg/ml) was 86 pg/mL, the interferon-γ value ([3]; after 48 hrs, PT gliadin alone 1177 pg/ml) was 426 pg/mL and the “length of the intestinal villi (biopsy)” value (dog (Irish setter); [4]) was “normal length”. The “number of intraepithelial lymphocytes (biopsy)” value (dog (Irish setter); [4]) was “significantly reduced”, the body weight (dog (Irish setter); [5]) was “increase” and the diarrhea (dog (Irish setter); [5]) was “decrease”.
